As a reminder, the EC50 is the concentration needed to bring the measured effect to its halfway point.

We go through one compound from US20150352114A1, “MITOTIC KINESIN Eg5 INHIBITING ANTICANCER AGENTS” (THE CLEVELAND CLINIC FOUNDATION, priority 2014, published 2015).

The test system of one assay is cell lines. To be noted: cited from earlier work.
Assay [1] relates to pCRMP2 (T514) in interphase GSCs. Put plainly: CRMP2 phosphorylation immunoblot. The format is cell-based, human. The note with it: 200 nM; 6-hour time course; GSCs. The procedure: FIGS. 8(A-B) illustrate that Eg5 impacts microtubule growth through the CRMP-tubulin deposition pathway; (A) 08-387 GSCs enriched in interphase were exposed to vehicle (DMSO) or ispinesib (200 nM) and harvested for whole cell lysates every two hours over a 6 hour time course. Resulting lysates were probed for CRMP2 and pCRMP2 (T514); (B) Human brain microvascular endothelial cells (HuBrMVECs) were treated with vehicle (DMSO) or ispinesib (200 nM) and harvested for whole cell lysates every three hours over a 6 hour time course. Resulting lysates were probed for CRMP2 and pCRMP2 (T514); For all immunoblots, βactin served as a loading control. Molecular weight (MW) of resulting bands is given in kilodaltons (kD).
Protein extracts were made using a 50 mM Tris pH 8.0, […] NaCl, 0.5% NP-40 lysis solution. Resulting lysates were ran on 10% SDS-PAGE gels and transferred to Immobilon-FL PVDF (Millipore Corp., Billerica, Mass.). The membranes were blocked with 5% (wt/vol) bovine serum albumin in PBS-Tween-20 (0.2% vol/vol) and probed with primary antibodies against Eg5 (mouse, 1:4000, BD Biosciences, San Jose, Calif.), Olig2 (rabbit, 1:1000, abcam, San Francisco, Calif.), GFAP (DAKO; 1:10,000, Carpinteria, Calif.), CRMP2 (mouse, 1:1000, abgent, San Diego, Calif.), pCRMP2(T514) (rabbit, 1:1000, Cell Signaling, Beverly, Mass.), or β-actin (mouse, 1:8000, Sigma-Aldrich, St. Louis, Mo.) as a loading control. Secondary antibodies (LI-COR) were incubated in TBST+0.02% SDS and visualized with the LI-COR Odyssey near infrared imaging system (Lincoln, NB).
A general note: A western blot detects proteins with antibodies after separation by electrophoresis.

For the next assay, the system named is 08-387 GSCs. The experiment in a line: Wound assay, tubulin immunofluorescence. To be noted: 200 nM; 6 hours. The format is cell-based, human. The procedure: Interphase enriched 08-387 GSCs were seeded within two-well culture inserts (ibidi, Verona, Wis.) at 2×10^5 cells per ml in triplicate (final volume of 80 μl per well) onto Geltrex coated glass bottom 6 well pates (MatTek Corp., Ashland, Mass.). After 2 hours, the insert was removed and cells were exposed to vehicle or 200 nM ispinesib. 6 hours later, cells were fixed and processed for immunofluorescence as described for atubulin. 20 Z-stack images at the wound edge were captured per condition using the 40× objective on a Leica DMI6000 inverted microscope. Images were then exported aa tif files using Velocity software (Mountain View, Calif.) and analyzed in ImageJ (NIH, Bethesda, Md.). Regions of interest were drawn for the primary cell layer at the wound edge for 3 independent scans per Z-stack representing the top, middle and bottom portion of the cell layer and pixel intensity and area measured.

Another assay deals with GSCs. The experiment in a line: Limiting dilution assay and sphere formation (self-renewal). The format is cell-based, human. To be noted: pretreatment 18 hours with 3 nM; scored ten days later. As to the method: GSCs were isolated from subcutaneous flank xenografts of patient-derived specimens by magnetic sorting as described above and allowed to recover overnight. The next day cells were exposed to vehicle or 3 nM ispinesib for 18 hours. Cells were then washed and triturated into a single cell suspension. Cell sorting was performed using a FACS Aria II Cell Sorter (BD Biosciences, Franklin Lakes, N.J., USA) to plate the cells into 96 well plates at a final cell number per well of 1 (38 wells/plate), 5 (24 wells/plate), 10, 20, or 50 (all at 12 wells/plate). Tumorsphere formation was evaluated 10 days after sorting and wells were scored positive or negative for the presence of at least one tumorsphere. The estimated stem cell frequency was calculated using extreme limiting dilution analysis. Only live cells were selected for using Live/Dead dye blue (Life Technologies).

The test system of the next assay is matched GSCs and NSTCs. The experiment in a line: Long-term viability assay, CellTiter-Glo, 5 days. The note with it: 3 nM; two matched GSCs and NSTCs. The format is cell-based, human. The procedure:
(§1) The half maximal effective concentration of ispinesib for acutely dissociated and MACS sorted matched GSCs and NSTCs was determined by plating, in triplicate, 1,000 cells per well of a 96 well plate pre-coated with GelTrex in growth-factor free Neuralbasal media. The next day, cells were exposed to 2-fold increasing concentrations of ispinesib spanning from 0 to 32 nM. Viability was measured at 72 hours using CellTiter-Glo ATP-based assay (Promega, Madison, Wis.) read on a luminometer (Perkin-Elmer, Waltham, Mass.). For long-term viability assays, 500 cells per well were plated in triplicate into 96-well plates as above. The next day, cells were exposed to 3 nM ispinesib or vehicle (DMSO) and viability was measured daily for 5 days using CellTiter-Glo. Day 0 reading were taken immediately after addition of drug or vehicle. SubG1 for GSCs and NSTCs was determined by flow cytometry for propidium iodide and gated as the events below the 2N G1 peak of the resulting histogram. Analysis was done following treatment of 100,000 cells with vehicle or 3 nM ispinesib. Cells were fixed at Day 0 through Day 4 in 100% cold ethanol and simultaneously processed for flow analysis with 20,000 events analyzed per condition.

The next assay relates to NSTCs. The experiment in a line: Dose response cell viability, CellTiter-Glo ATP-based assay, NSTCs. To be noted: Homo sapiens, 0 to 32 nM, 72 hours.
Description: Human tissues were acquired from primary human brain tumor patient specimens in accordance with appropriate approved Institutional Review Board protocols. Tumor grade and available cytogenetic information for each specimen has been previously described. Tumor specimens were maintained through subcutaneous xenografts in the flanks of athymic Nu/Nu or NSG mice. Tumors were dissociated using a papain dissociation system (Worthington Biochemical, Lakewood, N.J.). […]
as §1, with “The next day, cells were exposed to 2-fold increasing concentrations of ispinesib spanning from 0 to 32 nM.” left out, “For long-term viability assays, 500 cells per well were plated in triplicate into 96-well plates as above.” left out, “Analysis was done following treatment of 100,000 cells with vehicle or 3 nM ispinesib.” left out
On the technique in general: In ATP-based viability assays light output follows the ATP content of the culture.

The subject of assay [2] is orthotopic tumor from luciferase-expressing 3691 GSCs. The experiment in a line: Orthotopic GBM xenograft model with systemic ispinesib. The format is in vivo, mice.
Description: The tumor was isolated 5 hours later and processed for immunofluorescence to βtubulin with the nuclei counterstained with DAPI. […] 7 days later when positive luminescence signal indicated tumor burden, mice were randomized into one of two treatment groups; vehicle only (DMSO; n=10) or 10 mg/kg ispinesib (n=10) administered on a q4d×6 dosing schedule. Arrows indicate day of vehicle or drug administration.
Subcutaneous or intracranial tumors were fixed overnight in 4% PFA at 4° C., washed in PBS, cryoprotected in 30% sucrose, then embedded in optimal cutting temperature compound (OCT) and stored at −80° C. […] Sections were cut using a LeicaCMXXXX cryostat at 10 μm directly onto slides (Leica Microsystems Inc., Buffalo Grove, Ill.). Sections were postfixed for 15 minutes at room temperature in 4% PFA followed by PBS washes then incubated in blocking solution (5% goat serum, 0.1% Triton X-100 in PBS). Primary antibodies were diluted in blocking solution and used as follows overnight at 4° C.: Sox2 (rabbit, 1:500, Abcam, Cambridge, Mass., USA), atubulin (rat, 1:1000, AbD Serotec, Raleigh, N.C.). Secondary antibodies were Alexa Fluor (1:500, Invitrogen, Grand Island, N.Y., USA) labeled with 488 mixed in blocking solution and incubated for 2 hours at room temperature. DNA was stained using 4′,6-diamidino-2-phenylindole (DAPI, 10 μg/ml, Sigma, St Louis, Mo., USA) diluted in PBS for 5 minutes at room temperature.
To evaluate the efficacy of Eg5 inhibition in a more clinically relevant system, we utilized an orthotopic xenograft model to systemically deliver ispinesib. […] The tumor was sectioned and probed for tubulin to evaluate for the presence of mono-astral spindles, a hallmark of Eg5 inhibition.

The structures appear in SMILES notation.

Consider `Cc1ccc(C(=O)N(CCCN)[C@@H](c2nc3cc(Cl)ccc3c(=O)n2Cc2ccccc2)C(C)C)cc1` [ispinesib, N-(3-amino-propyl)-n-[R-1-(3-benzyl-7-choloro-4-oxo-3,4-dihydroquinazolin-2-yl)-2-methyl-propyl]-4-methyl-benzamide methanesulfonate], for which the “efficacy in cell lines tested” value with cell lines is reported as “nanomolar efficacy”. Moreover, in assay [1], the “phospho-CRMP2 (T514)” value was “significant increase”. The “polymerized tubulin at wound edge” value in the assay on 08-387 GSCs is given as “significant decrease in polymerized tubulin”. For the same compound, the “stem cell frequency (tumorsphere formation)” value in the assay on GSCs is reported as “significantly compromised”. The “cell viability over five-day time course” value in the assay with matched GSCs and NSTCs is given as “Both populations demonstrated sensitivity”. In addition, it took 1.79 ± 0.22 nM to reach a half-maximal effect in the assay with NSTCs (EC50). The same compound returned a median survival in assay [2] (10 mg/kg q4d×6 intraperitoneal) of 36 days. Also, in assay [2] (10 mg/kg q4d×6 intraperitoneal, p<0.001), the survival versus vehicle entry was “significant survival advantage”. Besides, the “mono-astral spindles in intracranial tumor” value in assay [2] (single 10 mg/kg dose, tumor harvested 5 hours later) is on record as “numerous cells with mono-astral spindles”.
